Experimental data reported in ChEMBL document CHEMBL5137020, “Electrostatic Complementarity in Structure-Based Drug Design” (J Med Chem, 2022).

What was measured:
Homo sapiens [1] = species: Homo sapiens; assay: Inhibition of cIAP BIR3 domain (unknown origin) at 1000 uM relative to control
Procathepsin L = Procathepsin L (Homo sapiens, UniProt P07711); assay: Inhibition of human Cathepsin L
Cathepsin S = Cathepsin S (Homo sapiens, UniProt P25774); assay: Inhibition of Cathepsin S (unknown origin)
Cathepsin S, sequence (P25774 whole entry): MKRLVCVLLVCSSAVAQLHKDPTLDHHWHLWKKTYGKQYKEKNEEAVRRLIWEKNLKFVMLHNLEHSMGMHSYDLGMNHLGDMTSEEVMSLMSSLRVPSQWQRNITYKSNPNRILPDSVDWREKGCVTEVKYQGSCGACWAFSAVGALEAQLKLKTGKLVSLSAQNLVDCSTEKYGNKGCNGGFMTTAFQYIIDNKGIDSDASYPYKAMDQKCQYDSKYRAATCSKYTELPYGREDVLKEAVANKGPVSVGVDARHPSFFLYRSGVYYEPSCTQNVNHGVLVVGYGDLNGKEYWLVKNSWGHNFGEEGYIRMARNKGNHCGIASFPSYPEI

Cathepsin K = biological target: T1, Cathepsin K (Homo sapiens, UniProt P43235); assay: Inhibition of Cathepsin K (unknown origin)
T1 sequence (P43235 whole entry): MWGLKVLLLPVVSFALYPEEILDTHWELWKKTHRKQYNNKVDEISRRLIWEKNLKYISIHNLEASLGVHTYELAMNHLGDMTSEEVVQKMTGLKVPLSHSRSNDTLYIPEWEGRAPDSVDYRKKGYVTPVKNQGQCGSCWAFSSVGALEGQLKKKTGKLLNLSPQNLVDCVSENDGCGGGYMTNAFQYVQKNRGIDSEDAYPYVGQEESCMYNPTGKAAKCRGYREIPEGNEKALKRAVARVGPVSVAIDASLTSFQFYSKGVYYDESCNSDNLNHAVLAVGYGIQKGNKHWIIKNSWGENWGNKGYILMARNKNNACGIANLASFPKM

Homo sapiens [2] = species: Homo sapiens; assay: Inhibition of cIAP BIR3 domain (unknown origin) at 495 uM relative to control

Procathepsin L, sequence (P07711 whole entry): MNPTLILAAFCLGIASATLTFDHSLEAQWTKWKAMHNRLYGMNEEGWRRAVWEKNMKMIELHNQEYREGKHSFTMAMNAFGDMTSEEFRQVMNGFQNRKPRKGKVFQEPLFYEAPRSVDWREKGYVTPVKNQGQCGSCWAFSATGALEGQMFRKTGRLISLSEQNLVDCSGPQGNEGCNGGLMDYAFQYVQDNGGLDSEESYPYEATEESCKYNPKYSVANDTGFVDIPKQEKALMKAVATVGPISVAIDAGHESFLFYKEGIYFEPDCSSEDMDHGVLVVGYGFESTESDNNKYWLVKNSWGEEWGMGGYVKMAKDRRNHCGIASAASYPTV

Row | inhibition (Homo sapiens [1]) | IC50 (Procathepsin L) | IC50 (Cathepsin S) | IC50 (Cathepsin K) | inhibition (Homo sapiens [2]) | SMILES
1 | 8% |  |  |  |  | C[C@@H]1CN(CC(=O)N2CCc3ccc(N)cc32)CCN1
2 |  | 36 nM | 1.4 nM | 6500 nM |  | COc1ccc(S(=O)(=O)[C@@H]2C[C@@H](C(=O)NC3(C#N)CC3)N(C(=O)C3(c4ccc(Cl)cn4)CNC3)C2)c(Cl)c1
3 |  |  |  | 11000 nM |  | COc1ccc(S(=O)(=O)[C@@H]2C[C@@H](C(=O)NC3(C#N)CC3)N(C(=O)C3(c4ccc(Cl)cn4)CC3)C2)c(Cl)c1
4 |  | 5 nM | 1 nM | 2000 nM |  | N#CC1(NC(=O)[C@@H]2C[C@@H](S(=O)(=O)c3ccccc3Cl)CN2C(=O)C2(c3ncc(Br)cc3F)CNC2)CC1
5 |  |  |  |  | 42% | C[C@@H]1CN(CC(=O)N2CCc3ccccc32)CCN1
